Source: the supplement of paper PMC11208160

Assay: recombinant barcode read abundance after kanamycin selection (control-corrected) (log10(CPM+1)); higher = more efficient recombination; sequences stand for … in AGTGCAGAGAAAATCGGCCAGTTTTCTCTGCCTGCAGTCCGCATGCCGT…AGATTTATGCAGCGGACTGCCTTTCTCCCAAAGTGATAAACCGGACAGTATCATGGACCGGTTTTCCCGGTAATCCGTATTTGCAAGGTTGGTTTCACT; site = the 11-nt target
Description: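 Pooled E. coli target-specificity screen for the IS621 bridge recombinase. Each library plasmid pairs an 11-nt target (CT core) with a bridge RNA whose target-binding loop (9-nt LTG + 4-nt RTG) is reprogrammed; the rest of the 177-nt WT IS621 bridge RNA scaffold is fixed. The plasmid is co-electroporated with a WT donor plasmid; recombinase is induced with 0.1 mM IPTG and recombinants are selected on kanamycin. Recombinant barcodes are sequenced, converted to CPM, averaged over two biological replicates and corrected by the unselected control CPM. Molecule = full bridge RNA written as DNA: LTG = specificity nt 1-9, RTG = reverse complement of specificity nt 8-11, in the WT scaffold.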
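Note: IS621 recombinase and bridge RNA in Escherichia coli cells.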

Sequence	recombinant barcode read abundance (log10)
AAGACTCCTTGGGTTCTAACCTGTTGCTT (site AACACTCCTAA)	0.287
AAGACTCCTTGGGTTCTAACCTGTTGCTT (site AAGACTCCTAA)	1.05
AAGAGAGCTTGGGTTCTAACCTGTTGCCT (site AAGAAAGCTAG)	0.0985
AAGAGAGCTTGGGTTCTAACCTGTTGCCT (site AAGACAGCTAG)	0.154
AAGAGAGCTTGGGTTCTAACCTGTTGCCT (site AAGAGAGCTAG)	1.91
AAGAGAGCTTGGGTTCTAACCTGTTGCCT (site AAGATAGCTAG)	0.0307
AAGATCACTTGGGTTCTAACCTGTTGCGG (site AAGATCACTCC)	2.36
AAGATCACTTGGGTTCTAACCTGTTGCGG (site TTACATGCTAG)	0.026
AAGCAAACTTGGGTTCTAACCTGTTGCCT (site AAGCAAACTAG)	0.66
AAGCAAACTTGGGTTCTAACCTGTTGCCT (site AAGCCAACTAG)	0.0799
AAGCAAACTTGGGTTCTAACCTGTTGCCT (site AAGCGAACTAG)	0.22
AAGCAAACTTGGGTTCTAACCTGTTGCCT (site AAGCTAACTAG)	0.218
AAGCAATCTTGGGTTCTAACCTGTTGCCT (site AAGCAATCTAG)	0.927
AAGCAATCTTGGGTTCTAACCTGTTGCCT (site AAGCACTCTAG)	0.159
AAGCAATCTTGGGTTCTAACCTGTTGCCT (site AAGCAGTCTAG)	0.0406
AAGCAATCTTGGGTTCTAACCTGTTGCCT (site AAGCATTCTAG)	0.126
AAGCCACCTTGGGTTCTAACCTGTTGCCT (site AAGCCACCTAG)	2.3
AAGCCACCTTGGGTTCTAACCTGTTGCCT (site CAGCCACCTAG)	0.126
AAGCCACCTTGGGTTCTAACCTGTTGCCT (site GAGCCACCTAG)	0.392
AAGCCACCTTGGGTTCTAACCTGTTGCCT (site TAGCCACCTAG)	1.31
AAGCGTCCTTGGGTTCTAACCTGTTGCCT (site AAGCGTACTAG)	0.384
AAGCGTCCTTGGGTTCTAACCTGTTGCCT (site AAGCGTCCTAG)	1.24

Sequence	recombinant barcode read abundance (log10)
AAGCGTCCTTGGGTTCTAACCTGTTGCCT (site AAGCGTGCTAG)	0.583
AAGCGTCCTTGGGTTCTAACCTGTTGCCT (site AAGCGTTCTAG)	0.06
AAGCTTGCTTGGGTTCTAACCTGTTGCCT (site AAGCTTGCTAG)	1.1
AAGCTTGCTTGGGTTCTAACCTGTTGCCT (site CGATGGACTCA)	0.315
AAGGACGCTTGGGTTCTAACCTGTTGCCT (site AAGGACGCTAG)	2.72
AAGGACGCTTGGGTTCTAACCTGTTGCCT (site AAGGCCGCTAG)	0.241
AAGGACGCTTGGGTTCTAACCTGTTGCCT (site AAGGGCGCTAG)	0.309
AAGGACGCTTGGGTTCTAACCTGTTGCCT (site AAGGTCGCTAG)	0.0217
AAGGGTTCTTGGGTTCTAACCTGTTGCCA (site AAGGGTTCTTG)	1.78
AAGGGTTCTTGGGTTCTAACCTGTTGCCA (site ACGGGTACTTG)	0.0285
AAGGTTCCTTGGGTTCTAACCTGTTGCTA (site AAGGTCCCTTG)	0.0242
AAGGTTCCTTGGGTTCTAACCTGTTGCTA (site AAGGTTCCTTA)	1.73
AAGTACACTTGGGTTCTAACCTGTTGCTG (site AAGTACACTCA)	2.75
AAGTACACTTGGGTTCTAACCTGTTGCTG (site CGACTGTCTAG)	0.0537
AAGTGCTCTTGGGTTCTAACCTGTTGCCT (site AAGTGCTCTAG)	2.34
AAGTGCTCTTGGGTTCTAACCTGTTGCCT (site ACGTGCTCTAG)	0.129
AAGTGCTCTTGGGTTCTAACCTGTTGCCT (site AGGTGCTCTAG)	0.124
AAGTGCTCTTGGGTTCTAACCTGTTGCCT (site ATGTGCTCTAG)	0.127
AAGTGTCCTTGGGTTCTAACCTGTTGCAT (site AAGTGTCCTAT)	1.73
AAGTGTCCTTGGGTTCTAACCTGTTGCAT (site AAGTTTCCTAT)	0.0208
AAGTTTACTTGGGTTCTAACCTGTTGCTT (site AAGTTTACTAA)	0.177
AAGTTTACTTGGGTTCTAACCTGTTGCTT (site AAGTTTACTAG)	0.0137

Sequence	recombinant barcode read abundance (log10)
AAGTTTCCTTGGGTTCTAACCTGTTGCGT (site AAGTTTCCTAC)	0.923
AAGTTTCCTTGGGTTCTAACCTGTTGCGT (site ACGTTTCCTAT)	0.102
AATACCTCTTGGGTTCTAACCTGTTGCCT (site AATACCTCTAG)	1.03
AATACCTCTTGGGTTCTAACCTGTTGCCT (site ACTACCTCTAG)	0.0183
AATACCTCTTGGGTTCTAACCTGTTGCCT (site AGTACCTCTAG)	0.0751
AATACCTCTTGGGTTCTAACCTGTTGCCT (site ATTACCTCTAG)	0.0243
AATACTACTTGGGTTCTAACCTGTTGCCT (site AATACTACTAG)	1.04
AATACTACTTGGGTTCTAACCTGTTGCCT (site ACTACTACTAG)	0.0229
AATACTACTTGGGTTCTAACCTGTTGCCT (site AGTACTACTAG)	0.0104
AATACTACTTGGGTTCTAACCTGTTGCCT (site ATTACTACTAG)	0
AATACTACTTGGGTTCTAACCTGTTGCTG (site AATACTACTCA)	0.256
AATACTACTTGGGTTCTAACCTGTTGCTG (site AGTACTCCTCA)	0.196
AATAGTGCTTGGGTTCTAACCTGTTGCCT (site AATAGTGCTAG)	0.203
AATAGTGCTTGGGTTCTAACCTGTTGCCT (site ACTAGTGCTAG)	0.101
AATAGTGCTTGGGTTCTAACCTGTTGCCT (site AGTAGTGCTAG)	0.176
AATAGTGCTTGGGTTCTAACCTGTTGCCT (site ATTAGTGCTAG)	0.045
AATCGAACTTGGGTTCTAACCTGTTGCCT (site AATCGAACTAG)	0.297
AATCGAACTTGGGTTCTAACCTGTTGCCT (site GATCGAACTAG)	0.15
AATCTAACTTGGGTTCTAACCTGTTGCCT (site AATCTAACTAG)	0.527
AATCTAACTTGGGTTCTAACCTGTTGCCT (site GGCGCCTCTGC)	0.538
AATCTGTCTTGGGTTCTAACCTGTTGCGT (site AATCTGTCTAC)	1.8
AATCTGTCTTGGGTTCTAACCTGTTGCGT (site TAGCTGTCTAC)	0.149
